The record followed here is PubChem BioAssay AID192 (DTP/NCI, 2004).

The subject of this assay is BDF1 mice, B16 melanoma ip, median survival T/C. The assay is described as follows: NCI In Vivo Anticancer Drug Screen. Data for tumor model B16 Melanoma (intraperitoneal) in B6D2F1 (BDF1) mice. The settings on record: endpoint: median survival time, higher = longer survival. An outline of the steps:
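Read-out: survival or tumor size, given as treated/control ratio. Controls received vehicle only; animals bore transplantable tumors.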

Where [1] appears, read: dose: 100.0 mg/kg/injection, schedule: Q04DX003 (ip), vehicle: saline with Tween-80.
The mark [2] stands for this setting: dose: 200.0 mg/kg/injection, schedule: Q04DX003 (ip), vehicle: saline with Tween-80.
[3] abbreviates: dose: 100.0 mg/kg/injection, schedule: Q01DX009 (ip), vehicle: Klucel (hydroxypropylcellulose) (HPC).
Where [4] appears, read: dose: 100.0 mg/kg/injection, schedule: Q04DX003 (ip), vehicle: saline.
[5] abbreviates: dose: 200.0 mg/kg/injection, schedule: Q04DX003 (ip), vehicle: saline.
The mark [6] stands for this setting: dose: 400.0 mg/kg/injection, schedule: Q04DX003 (ip), vehicle: saline.
Where [7] appears, read: dose: 50.0 mg/kg/injection, schedule: Q01DX009 (ip), vehicle: saline with Tween-80.
Setting [8] is: dose: 100.0 mg/kg/injection, schedule: Q01DX009 (ip), vehicle: saline with Tween-80.
The mark [9] stands for this setting: dose: 200.0 mg/kg/injection, schedule: Q01DX009 (ip), vehicle: saline with Tween-80.

Where “and” joins values, the source holds several entries; their conditions need not be identical. Equal values may be shown once. Inconclusive results and toxic doses are left out.

As to `CCOC(=O)C(Cc1ccccc1)P(=O)(OCC)OCC` (stereo unspecified), the T/C is 100 % of control (dose: 50.0 mg/kg/injection, schedule: Q04DX003 (ip), vehicle: saline with Tween-80); 95 % of control under setting [1]; 90 % of control under setting [2].

In the case of `C1CN1c1nc(N2CC2)nc(N2CC2)n1`, the T/C (dose: 0.05 mg/kg/injection, schedule: Q01DX009 (ip), vehicle: saline) is 97 % of control and 108 % of control; the T/C (dose: 0.06 mg/kg/injection, schedule: Q01DX009 (ip), vehicle: saline) is 103 % of control; the T/C (dose: 0.06 mg/kg/injection, schedule: Q01DX009 (ip), vehicle: suspension in saline) is 103 % of control; the T/C (dose: 0.1 mg/kg/injection, schedule: Q01DX009 (ip), vehicle: saline) was 103 % of control and 109 % of control and 120 % of control; the T/C (dose: 0.12 mg/kg/injection, schedule: Q01DX009 (ip), vehicle: saline with Tween-80) is 107 % of control; the T/C (dose: 0.12 mg/kg/injection, schedule: Q01DX009 (ip), vehicle: suspension in saline) is 100 % of control. The T/C is 94 % of control and 96 % of control (dose: 0.13 mg/kg/injection, schedule: Q01DX009 (ip), vehicle: saline sonified); 102 % of control and 105 % of control (dose: 0.13 mg/kg/injection, schedule: Q01DX009 (ip), vehicle: saline with Tween-80); 96 % of control and 100 % of control (dose: 0.25 mg/kg/injection, schedule: Q01DX009 (ip), vehicle: saline sonified); 107 % of control and 108 % of control and 119 % of control (dose: 0.25 mg/kg/injection, schedule: Q01DX009 (ip), vehicle: saline with Tween-80); 108 % of control (dose: 0.25 mg/kg/injection, schedule: Q01DX009 (ip), vehicle: suspension in saline); 150 % of control (dose: 0.3 mg/kg/injection, schedule: Q01DX009 (ip), vehicle: saline). For the same compound, the T/C is, setting by setting: (dose: 0.5 mg/kg/injection, schedule: Q01DX009 (ip), vehicle: saline sonified) 96 % of control and 101 % of control; (dose: 0.5 mg/kg/injection, schedule: Q01DX009 (ip), vehicle: saline with Tween-80) 105 % of control and 114 % of control and 119 % of control; (dose: 0.5 mg/kg/injection, schedule: Q01DX009 (ip), vehicle: suspension in saline) 124 % of control; (dose: 0.5 mg/kg/injection, schedule: Q08DX002 (ip), vehicle: saline sonified) 98 % of control and 103 % of control; (dose: 0.5 mg/kg/injection, schedule: Q08DX002 (ip), vehicle: saline with Tween-80) 100 % of control and 119 % of control; (dose: 1.0 mg/kg/injection, schedule: Q01DX009 (ip), vehicle: suspension in saline) 109 % of control. The T/C was 108 % of control and 114 % of control (dose: 1.0 mg/kg/injection, schedule: Q08DX002 (ip), vehicle: saline sonified); 102 % of control and 113 % of control and 116 % of control (dose: 1.0 mg/kg/injection, schedule: Q08DX002 (ip), vehicle: saline with Tween-80); 105 % of control (dose: 2.0 mg/kg/injection, schedule: Q08DX002 (ip), vehicle: saline sonified); 123 % of control (dose: 2.0 mg/kg/injection, schedule: Q08DX002 (ip), vehicle: saline with Tween-80); 90 % of control and 105 % of control (dose: 4.0 mg/kg/injection, schedule: Q08DX002 (ip), vehicle: saline with Tween-80).

As for `CC(CN(C)C)C(=O)c1ccccc1` (stereo unspecified), the T/C (dose: 25.0 mg/kg/injection, schedule: Q01DX009 (ip), vehicle: Klucel (hydroxypropylcellulose) (HPC)) was 106 % of control; the T/C (dose: 50.0 mg/kg/injection, schedule: Q01DX009 (ip), vehicle: Klucel (hydroxypropylcellulose) (HPC)) is 90 % of control; the T/C under setting [3] is 96 % of control.

Consider `CC(CCOCC1CO1)OCC1CO1` (stereo unspecified), for which the T/C was 100 % of control under setting [4], 108 % of control under setting [5] and 110 % of control under setting [6].

With `COC(=O)CNc1ccc(S(=O)(=O)c2ccc(N)cc2)cc1`, the T/C reads like this: under setting [3], 103 % of control; (dose: 200.0 mg/kg/injection, schedule: Q01DX009 (ip), vehicle: Klucel (hydroxypropylcellulose) (HPC)) 106 % of control; (dose: 400.0 mg/kg/injection, schedule: Q01DX009 (ip), vehicle: Klucel (hydroxypropylcellulose) (HPC)) 120 % of control.

For the compound `O=CN(O)CC(=O)O.[Zn]`, the T/C was 99 % of control (dose: 5.0 mg/kg/injection, schedule: Q01DX009 (ip), vehicle: saline); 98 % of control (dose: 10.0 mg/kg/injection, schedule: Q01DX009 (ip), vehicle: saline); 88 % of control (dose: 20.0 mg/kg/injection, schedule: Q01DX009 (ip), vehicle: saline).

Take `Cc1cc(NCCN(C(C)C)C(C)C)nc(/N=C(\N)Nc2ccc(Cl)c(C(F)(F)F)c2)n1`: the T/C (dose: 2.5 mg/kg/injection, schedule: Q04DX003 (ip), vehicle: Klucel (hydroxypropylcellulose) (HPC)) was 101 % of control; the T/C (dose: 5.0 mg/kg/injection, schedule: Q01DX009 (ip), vehicle: Klucel (hydroxypropylcellulose) (HPC)) was 92 % of control; the T/C (dose: 5.0 mg/kg/injection, schedule: Q04DX003 (ip), vehicle: Klucel (hydroxypropylcellulose) (HPC)) was 93 % of control; the T/C (dose: 10.0 mg/kg/injection, schedule: Q01DX009 (ip), vehicle: Klucel (hydroxypropylcellulose) (HPC)) is 91 % of control; the T/C (dose: 10.0 mg/kg/injection, schedule: Q04DX003 (ip), vehicle: Klucel (hydroxypropylcellulose) (HPC)) was 102 % of control; the T/C (dose: 20.0 mg/kg/injection, schedule: Q04DX003 (ip), vehicle: Klucel (hydroxypropylcellulose) (HPC)) was 111 % of control.

In the case of `CSc1nc(NC(C)C)nc(NC(C)C)n1`, the T/C (dose: 25.0 mg/kg/injection, schedule: Q01DX009 (ip), vehicle: saline with Tween-80) was 102 % of control; the T/C under setting [7] is 92 % of control; the T/C under setting [8] is 102 % of control.

`O=C(/C=C/C(=O)Oc1c(Cl)c(Cl)c(Cl)c(Cl)c1Cl)Oc1c(Cl)c(Cl)c(Cl)c(Cl)c1Cl`: the T/C under setting [3] was 86 % of control.

For the compound `COC(=O)c1ccccc1C=C(c1ccc([N+](=O)[O-])cc1)c1ccc([N+](=O)[O-])cc1`, the T/C reads like this: under setting [7], 97 % of control; under setting [8], 113 % of control; under setting [9], 91 % of control.

As for `Clc1ccc(C(c2ccc(Cl)cc2)C(Cl)(Cl)Cl)cc1`, the T/C was 101 % of control (dose: 16.0 mg/kg/injection, schedule: Q01DX009 (ip), vehicle: Klucel (hydroxypropylcellulose) (HPC)) and 92 % of control (dose: 32.0 mg/kg/injection, schedule: Q01DX009 (ip), vehicle: Klucel (hydroxypropylcellulose) (HPC)).

Consider `C#CCOCC1CO1` (stereo unspecified), for which the T/C is, setting by setting: under setting [7], 97 % of control; under setting [8], 91 % of control.

Turning to `Cc1cccc(C2CCCC2c2ccccc2)c1` (stereo unspecified), the T/C was 88 % of control (dose: 75.0 mg/kg/injection, schedule: Q01DX009 (ip), vehicle: Klucel (hydroxypropylcellulose) (HPC)); 97 % of control (dose: 150.0 mg/kg/injection, schedule: Q01DX009 (ip), vehicle: Klucel (hydroxypropylcellulose) (HPC)); 100 % of control (dose: 300.0 mg/kg/injection, schedule: Q01DX009 (ip), vehicle: Klucel (hydroxypropylcellulose) (HPC)).

For the compound `COC(=O)CCC(=O)N1CCOCC1`, the T/C was 95 % of control under setting [8]; 100 % of control under setting [1]; 93 % of control under setting [9]; 102 % of control under setting [2]; 97 % of control (dose: 400.0 mg/kg/injection, schedule: Q01DX009 (ip), vehicle: saline with Tween-80); 102 % of control (dose: 400.0 mg/kg/injection, schedule: Q04DX003 (ip), vehicle: saline with Tween-80).

With `OCCN(CCO)CN(CO)c1nc(N(CO)CN(CCO)CCO)nc(N(CO)CN(CCO)CCO)n1`, the T/C under setting [4] was 120 % of control, the T/C under setting [5] is 123 % of control and the T/C under setting [6] is 112 % of control.

For `O=C1NC(=O)c2ccccc21`, the T/C reads like this: (dose: 200.0 mg/kg/injection, schedule: Q01DX009 (ip), vehicle: saline) 97 % of control; (dose: 400.0 mg/kg/injection, schedule: Q01DX009 (ip), vehicle: saline) 95 % of control.

As for `O=[n+]1ccn2cc3ccccc3cc2c1`, the T/C (dose: 3.75 mg/kg/injection, schedule: Q01DX009 (ip), vehicle: saline) is 102 % of control and the T/C (dose: 7.5 mg/kg/injection, schedule: Q01DX009 (ip), vehicle: saline) is 105 % of control.
